13 compounds from patent US20120129842A1, “BISTHIAZOLE INHIBITORS OF PRO-MATRIX METALLOPROTEINASE ACTIVATION” (priority 2010, published 2012) can be followed below.

Assay [1] addresses T1, proMMP9(20-445;ΔFnII) (SEQ ID NO:6) (Homo sapiens, UniProt P14780, DEL216-390).
T1 construct: start methionine (N); made in house; host or cells: E. coli BL21(DE3) RIL
T1 sequence (P14780 with tags, fused parts or gaps DEL216-390): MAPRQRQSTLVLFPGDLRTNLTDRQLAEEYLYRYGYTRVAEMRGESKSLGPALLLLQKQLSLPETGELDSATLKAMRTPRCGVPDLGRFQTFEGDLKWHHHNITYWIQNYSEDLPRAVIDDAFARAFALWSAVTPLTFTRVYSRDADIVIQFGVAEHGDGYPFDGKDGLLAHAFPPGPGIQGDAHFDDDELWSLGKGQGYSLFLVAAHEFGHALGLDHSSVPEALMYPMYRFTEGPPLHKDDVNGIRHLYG
Briefly: ThermoFluor binding assay with proMMP9(20-445;ΔFnII). Particulars: pH 7.0. The protocol: (§1) The ThermoFluor® (TF) assay is a 384-well plate-based binding assay that measures thermal stability of proteins (Biomol Screen 2001, 6, 429-40; Biochemistry 2005, 44, 5258-66). The experiments were carried out using instruments available from Johnson & Johnson Pharmaceutical Research & Development, LLC. TF dye used in all experiments was […] (1,8-ANS) (Invitrogen: A-47).
(§2) Compounds were arranged in a pre-dispensed plate (Greiner Bio-one: 781280), wherein compounds were serially diluted in 100% DMSO across 11 columns within a series. Columns 12 and 24 were used as DMSO reference and contained no compound. For multiple compound concentration-response experiments, the compound aliquots ([…]) were robotically predispensed directly into black 384-well polypropylene PCR microplates (Abgene: TF-0384/k) using a Cartesian Hummingbird liquid handler (DigiLab, Holliston, Mass.). Following compound dispense, protein and dye solutions were added to achieve the final assay volume of 3 μL. The assay solutions were overlayed with 1 μL of silicone oil (Fluka, type DC 200: 85411) to prevent evaporation.
(§3) Assay plates were robotically loaded onto a thermostatically controlled PCR-type thermal block and then heated from 40 to 90° C. at a ramp-rate of 1° C./min for all experiments. Fluorescence was measured by continuous illumination with UV light (Hamamatsu LC6) supplied via fiber optics and filtered through a band-pass filter (380-400 nm; >6 OD cutoff). Fluorescence emission of the entire 384-well plate was detected by measuring light intensity using a CCD camera (Sensys, Roper Scientific) filtered to detect 500±25 nm, resulting in simultaneous and independent readings of all 384 wells. A single image with 20-sec exposure time was collected at each temperature, and the sum of the pixel intensity in a given area of the assay plate was recorded vs temperature and fit to standard equations to yield the Tm (J Biomol Screen 2001, 6, 429-40).
(§4) Thermodynamic parameters necessary for fitting compound binding for each proMMP were estimated by differential scanning calorimetry (DSC) and from ThermoFluor® data. The heat capacity of unfolding for each protein was estimated from the molecular weight and from ThermoFluor® dosing data.
The protein sample preparations included a desalting buffer exchange step via a PD-10 gravity column (GE Healthcare). The desalting buffer exchange was performed prior to diluting the protein to the final assay concentration of 2.8 μM proMMP9(20-445;ΔFnII) (SEQ ID NO:6). The concentration of proMMP9(20-445;ΔFnII) (SEQ ID NO:6) was determined spectrophotometrically based on a calculated extinction coefficient of ε280=39880 M^−cm^−1, a calculated molecular weight of 28.2 kDa, and calculated pI of 5.5. ThermoFluor® reference conditions were define as follows: 80 μg/mL (2.8 μM) proMMP9(20-445;ΔFnII) (SEQ ID NO:6), 50 μM 1,8-ANS, pH 7.0 Buffer (50 mM HEPES pH 7.0, 100 mM NaCl, 0.001% Tween-20, 2.5 mM MgCl2, 300 μM CaCl2). The thermodynamic parameters for proMMP9(20-445;ΔFnII) (SEQ ID NO:6) are as follows: Tm (° C.)=72 (+/−0.1), ΔUH(Tm) (cal mol^−1)=160000(+/−5000), ΔUS(Tm) (cal mol^−1 K^−1)=434, ΔUCp (cal mol^−1 K^−)=2400.
In general terms: In DSF a fluorescence change marks the thermal transition of the protein.

For assay [2], the target named is T2, proMMP9(67-444;ΔFnII) (SEQ ID NO:5) (Homo sapiens, UniProt P14780, DEL216-390).
T2 construct: start methionine (N); made in house; host or cells: E. coli BL21(DE3) RIL
T2 sequence (P14780 with tags, fused parts or gaps DEL216-390): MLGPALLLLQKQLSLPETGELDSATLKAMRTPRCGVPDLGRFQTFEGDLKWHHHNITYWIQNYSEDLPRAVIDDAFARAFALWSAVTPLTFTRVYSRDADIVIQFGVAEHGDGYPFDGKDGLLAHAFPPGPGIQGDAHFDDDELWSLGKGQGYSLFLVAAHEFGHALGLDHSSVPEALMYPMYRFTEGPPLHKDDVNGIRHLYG
Briefly: ThermoFluor binding assay with proMMP9(67-444;ΔFnII). Particulars: pH 7.0. As for the experimental part: as §1, §2, §3, §4
The protein sample preparations had to include a desalting buffer exchange step via a PD-10 gravity column (GE Healthcare). The desalting buffer exchange was performed prior to diluting the protein to the final assay concentration of 3.5 μM proMMP9(67-444;ΔFnII) (SEQ ID NO:5). The concentration of proMMP9(67-444;ΔFnII) (SEQ ID NO:5) was determined spectrophotometrically based on a calculated extinction coefficient of ε280=33900 M^−1cm^−1, a calculated molecular weight of 22.6 kDa, and calculated pI of 5.20. ThermoFluor® reference conditions were defined as follows: 80 μg/mL (3.5 μM) proMMP9(67-444;ΔFnII) (SEQ ID NO:5), 50 μM 1,8-ANS, pH 7.0 Buffer (50 mM HEPES pH 7.0, 100 mM NaCl, 0.001% Tween-20, 2.5 mM MgCl2, 300 μM CaCl2). The thermodynamic parameters for proMMP9(67-444;ΔFnII) (SEQ ID NO:5) are as follows: Tm (° C.)=63 (+/−0.1), ΔUH(Tm) (cal mol^−1)=105000(+/−5000), ΔUS(Tm) (cal mol^−1 K^−1)=[…], ΔUCp (cal mol^−1 K^−1)=2000.

Assay [3] deals with T3, full-length proMMP9(1-707) (SEQ ID NO:1) (Homo sapiens, UniProt P14780, R574P).
T3 construct: made in house; host or cells: HEK293 (proMMP9, secreted); E. coli (MMP3)
As to the kind of experiment: proMMP9/MMP3 P126 Activation Assay. The class given is biochemical. Particulars: 20 nM proMMP9, 20 nM MMP3, 80 min 37° C. As for the experimental part:
The reaction volume was 50 μL. […] Reactivity of residual MMP3 towards P-126 substrate was minimal under these conditions.

pIC50, pKd: −log10 of the molar value. Where a name gives a salt, the structure may show the parent alone.

T3 sequence (P14780 20-707 R574P): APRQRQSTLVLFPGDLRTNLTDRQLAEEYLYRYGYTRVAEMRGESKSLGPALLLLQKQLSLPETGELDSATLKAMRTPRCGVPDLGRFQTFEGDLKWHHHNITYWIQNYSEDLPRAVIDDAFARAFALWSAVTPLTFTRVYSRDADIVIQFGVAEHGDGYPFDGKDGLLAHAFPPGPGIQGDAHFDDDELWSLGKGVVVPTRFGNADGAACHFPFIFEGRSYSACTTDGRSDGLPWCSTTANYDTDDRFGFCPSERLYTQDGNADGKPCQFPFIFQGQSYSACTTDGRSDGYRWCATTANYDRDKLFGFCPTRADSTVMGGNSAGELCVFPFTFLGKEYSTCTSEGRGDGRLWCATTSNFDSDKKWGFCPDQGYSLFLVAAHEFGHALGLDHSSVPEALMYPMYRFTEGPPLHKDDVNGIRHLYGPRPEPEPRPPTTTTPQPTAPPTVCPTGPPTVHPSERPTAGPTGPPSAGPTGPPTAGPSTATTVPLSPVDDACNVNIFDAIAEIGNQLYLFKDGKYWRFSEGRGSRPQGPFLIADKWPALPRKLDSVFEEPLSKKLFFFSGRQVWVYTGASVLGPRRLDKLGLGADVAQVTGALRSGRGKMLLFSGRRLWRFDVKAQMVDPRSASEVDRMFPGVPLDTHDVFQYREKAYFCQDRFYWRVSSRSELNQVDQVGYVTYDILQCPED

For the compound `CCC(C)Oc1ccc(C(N)=O)cc1Nc1nc(-c2sc(C)nc2C)cs1` (racemic) [Example 14, (±)-4-sec-Butoxy-3-(2′,4′-dimethyl-[4,5′]bithiazolyl-2-ylamino)-benzamide.TFA], the pKd (in general, the negative decadic logarithm of the Kd, by convention in mol/L) is 6.24 in assay [1] and 5.15 in assay [2]. The pIC50 – broadly, −log10 of the IC50, conventionally taken in molar units – in assay [3] is 5.33.
In assay [3], `CC(=O)Nc1nc(C)c(-c2csc(Nc3cccc4cc(C)oc34)n2)s1` [Example 9, N-[4′-Methyl-2-(2-methyl-benzofuran-7-ylamino)-[4,5′]bithiazolyl-2′-yl]-acetamide] showed a pIC50 of 5.44.
As to `CC(=O)Nc1nc(C)c(-c2csc(Nc3cccc4c3OC(F)(F)O4)n2)s1` [Example 10, N-[2-(2,2-Difluoro-benzo[1,3]dioxol-4-ylamino)-4′-methyl-[4,5′]bithiazolyl-2′-yl]-acetamide], the negative logarithm of the IC50 (pIC50) in assay [3] is 5.25.
With `Cc1nc(C)c(-c2csc(Nc3cc(C(N)=O)ccc3OC(C)(C)C)n2)s1` [Example 12, 4-tert-Butoxy-3-(2′,4′-dimethyl-[4,5′]bithiazolyl-2-ylamino)-benzamide], the pKd in assay [1] is 5.72; in assay [2], 4.82. In assay [3], this compound gave a pIC50 of 5.60.
Taken in the same sequence, the figures for `Cc1nc(C)c(-c2csc(Nc3cc(C(N)=O)ccc3OCC(F)(F)F)n2)s1` [Example 16, 3-(2′,4′-Dimethyl-[4,5′]bithiazolyl-2-ylamino)-4-(2,2,2-trifluoro-ethoxy)-benzamide] were 6.62, 5.68 and 5.89.
As for `CCN(CC)S(=O)(=O)c1ccc(OC)c(Nc2nc(-c3sc(NC(C)=O)nc3C)cs2)c1` [Example 20, N-[2-(5-Diethylsulfamoyl-2-methoxy-phenylamino)-4′-methyl-[4,5]bithiazolyl-2′-yl]-acetamide], the figures for the negative-log Kd (pKd) in assay [1] and in assay [2] were 4.68 and 5.17, respectively.
For `COc1ccc(C(F)(F)F)cc1Nc1nc(-c2sc(N)nc2C)cs1` [Example 22, N^2-(2-Methoxy-5-trifluoromethyl-phenyl)-4′-methyl-[4,5′]bithiazolyl-2,2′-diamine.HBr], in that order: 5.19 and 5.80.
For the compound `COc1ccc(C(N)=O)cc1Nc1nc(-c2cnc(N)s2)cs1` [Example 27, 3-(2′-Amino-[4,5′]bithiazolyl-2-ylamino)-4-methoxy-benzamide.HBr], the results for the negative logarithm of the Kd (pKd) in assay [1] and in assay [2] were 6.00 and 5.55, respectively. The pIC50 in assay [3] was 5.28.
Turning to `COc1cc(C(N)=O)ccc1Nc1nc(-c2sc(C)nc2C)cs1` [Example 35, 4-(2′,4′-Dimethyl-[4,5′]bithiazolyl-2-ylamino)-3-methoxy-benzamide], the negative logarithm of the Kd (pKd) in assay [1] was 4.85; in assay [2], 5.41.
For the compound `COc1cc(C)c(C(N)=O)cc1Nc1nc(-c2sc(N3CCN(C)CC3)nc2C)cs1` [Example 37, 4-Methoxy-2-methyl-5-[4′-methyl-2′-(4-methyl-piperazin-1-yl)-[4,5]bithiazolyl-2-ylamino]-benzamide.HCl], the pKd in assay [1] was 6.24; in assay [2], 5.14. Besides, the pIC50 in assay [3] was 5.44.
In turn, `Cc1nc(C)c(-c2csc(Nc3cc(C(N)=O)ccc3CC(C)C)n2)s1` [Example 38, 3-(2′,4′-Dimethyl-[4,5′]bithiazolyl-2-ylamino)-4-isobutyl-benzamide.TFA] had a pKd in assay [1] of 6.26. For the same compound, in assay [3], the negative logarithm of the IC50 (pIC50) is 6.10.
On to `Cc1nc(C2CCN(C)CC2)sc1-c1csc(Nc2cc(S(N)(=O)=O)ccc2OC(C)C)n1` [Example 156, 4-Isopropoxy-3-((4′-methyl-2′-(1-methylpiperidin-4-yl)-[4,5′-bithiazol]-2-yl)amino)benzenesulfonamide.TFA], for which the negative logarithm of the IC50 (pIC50) in assay [3] was 7.17.
`CCOc1ccncc1Nc1nc(-c2sc(C3CCN(C)CC3)nc2C)cs1` [Example 158, N-(4-Ethoxypyridin-3-yl)-4′-methyl-2′-(1-methylpiperidin-4-yl)-[4,5′-bithiazol]-2-amine.TFA] showed a negative-log IC50 (pIC50) in assay [3] of 6.54.
